Test results reported in the NIST ThermoML archive (doi:10.1016/j.jct.2016.06.016).

Experiment: xn = mol fraction of the nth substance listed
Conditions: 100 kPa, Liquid; for viscosity: Concentric cylinders viscometry; for mass density: Vibrating tube method

CCOC(=O)CCC(=O)OCC [diethyl butanedioate] + CCCO
Conditions	mass density [kg/m3]	viscosity [mPa·s]
288.15 K, x1 = 0.1	854.4	2.13
288.15 K, x1 = 0.2	891.88	2.009
288.15 K, x1 = 0.2999	922.67	2.025
288.15 K, x1 = 0.3998	948.47	2.105
288.15 K, x1 = 0.4999	970.46	2.214
288.15 K, x1 = 0.6001	989.43	2.341
288.15 K, x1 = 0.7001	1005.92	2.496
288.15 K, x1 = 0.8002	1020.45	2.69
288.15 K, x1 = 0.8997	1033.27	2.926
288.15 K, x1 = 1	1044.83	3.195
293.15 K, x1 = 0.1	850.08	1.889
293.15 K, x1 = 0.2	887.33	1.788
293.15 K, x1 = 0.2999	917.95	1.804
293.15 K, x1 = 0.3998	943.61	1.875
293.15 K, x1 = 0.4999	965.5	1.971
293.15 K, x1 = 0.6001	984.4	2.082
293.15 K, x1 = 0.7001	1000.83	2.215
293.15 K, x1 = 0.8002	1015.31	2.379
293.15 K, x1 = 0.8997	1028.1	2.578
293.15 K, x1 = 1	1039.63	2.807
298.15 K, x1 = 0.1	845.75	1.69
298.15 K, x1 = 0.2	882.77	1.608
298.15 K, x1 = 0.2999	913.21	1.622
298.15 K, x1 = 0.3998	938.75	1.684
298.15 K, x1 = 0.4999	960.54	1.767
298.15 K, x1 = 0.6001	979.36	1.866
298.15 K, x1 = 0.7001	995.74	1.983
298.15 K, x1 = 0.8002	1010.18	2.126
298.15 K, x1 = 0.8997	1022.93	2.297
298.15 K, x1 = 1	1034.44	2.491
303.15 K, x1 = 0.1	841.4	1.519
303.15 K, x1 = 0.2	878.18	1.452
303.15 K, x1 = 0.2999	908.46	1.465
303.15 K, x1 = 0.3998	933.87	1.518
303.15 K, x1 = 0.4999	955.57	1.593
303.15 K, x1 = 0.6001	974.32	1.682
303.15 K, x1 = 0.7001	990.64	1.787
303.15 K, x1 = 0.8002	1005.04	1.912
303.15 K, x1 = 0.8997	1017.76	2.061
303.15 K, x1 = 1	1029.25	2.229
308.15 K, x1 = 0.1	837.02	1.371
308.15 K, x1 = 0.2	873.57	1.316
308.15 K, x1 = 0.2999	903.69	1.328
308.15 K, x1 = 0.3998	928.98	1.376
308.15 K, x1 = 0.4999	950.59	1.444
308.15 K, x1 = 0.6001	969.27	1.524
308.15 K, x1 = 0.7001	985.54	1.619
308.15 K, x1 = 0.8002	999.9	1.731
308.15 K, x1 = 0.8997	1012.6	1.861
308.15 K, x1 = 1	1024.08	2.008
313.15 K, x1 = 0.1	832.6	1.248
313.15 K, x1 = 0.2	868.94	1.209
313.15 K, x1 = 0.2999	898.89	1.222
313.15 K, x1 = 0.3998	924.07	1.265
313.15 K, x1 = 0.4999	945.59	1.325
313.15 K, x1 = 0.6001	964.21	1.398
313.15 K, x1 = 0.7001	980.44	1.484
313.15 K, x1 = 0.8002	994.77	1.586
313.15 K, x1 = 0.8997	1007.44	1.7
313.15 K, x1 = 1	1018.9	1.821
318.15 K, x1 = 0.1	828.14	1.128
318.15 K, x1 = 0.2	864.27	1.096
318.15 K, x1 = 0.2999	894.07	1.11
318.15 K, x1 = 0.3998	919.14	1.15
318.15 K, x1 = 0.4999	940.58	1.206
318.15 K, x1 = 0.6001	959.14	1.274
318.15 K, x1 = 0.7001	975.33	1.352
318.15 K, x1 = 0.8002	989.62	1.443
318.15 K, x1 = 0.8997	1002.28	1.545
318.15 K, x1 = 1	1013.72	1.66
323.15 K, x1 = 0.1	823.65	1.029
323.15 K, x1 = 0.2	859.57	1.006
323.15 K, x1 = 0.2999	889.22	1.025
323.15 K, x1 = 0.3998	914.18	1.065
323.15 K, x1 = 0.4999	935.55	1.118
323.15 K, x1 = 0.6001	954.05	1.18
323.15 K, x1 = 0.7001	970.21	1.251
323.15 K, x1 = 0.8002	984.48	1.334
323.15 K, x1 = 0.8997	997.12	1.425
323.15 K, x1 = 1	1008.55	1.523
